From BigSolDB 2.1

NC(=O)OCCCc1ccccc1
solubility (mole fraction)
Settings | 283.15 K | 288.15 K | 293.15 K | 298.15 K | 303.15 K | 308.15 K | 313.15 K | 318.15 K | 323.15 K
in 2-butanone | 0.0601 | 0.0718 | 0.0829 | 0.0993 | 0.117 | 0.131 | 0.147 | 0.164 | 0.187
in acetone | 0.0652 | 0.0775 | 0.0939 | 0.107 | 0.12 | 0.137 | 0.158 | 0.179 | 0.202
in ethanol | 0.0156 | 0.0178 | 0.0239 | 0.0307 | 0.0392 | 0.0493 | 0.0623 | 0.0808 | 0.1
in ethyl acetate | 0.0493 | 0.0567 | 0.0687 | 0.0803 | 0.0929 | 0.104 | 0.117 | 0.13 | 0.144
in isopropanol | 0.0108 | 0.0149 | 0.0207 | 0.0261 | 0.0339 | 0.0439 | 0.0587 | 0.0769 | 0.0904
in methanol | 0.0202 | 0.0247 | 0.0321 | 0.0396 | 0.0492 | 0.0614 | 0.0752 | 0.1 | 0.118
in methyl acetate | 0.0494 | 0.059 | 0.0719 | 0.0862 | 0.101 | 0.119 | 0.139 | 0.161 | 0.186
in n-butanol | 0.00704 | 0.012 | 0.0198 | 0.0279 | 0.0391 | 0.0492 | 0.0663 | 0.0824 | 0.0972
in n-pentanol | 0.0174 | 0.02 | 0.0239 | 0.031 | 0.0404 | 0.0523 | 0.0668 | 0.081 | 0.0946
in n-propanol | 0.0127 | 0.0155 | 0.0219 | 0.028 | 0.0349 | 0.045 | 0.0589 | 0.0771 | 0.0989
in sec-butanol | 0.0138 | 0.017 | 0.0226 | 0.0299 | 0.0405 | 0.0515 | 0.0679 | 0.092 | 0.118
in water | 8.1e-06 | 1.5e-05 | 3.19e-05 | 5.99e-05 | 0.000107 | 0.000165 | 0.000229 | 0.000293 | 0.000378
